In patent publication US8338348B2, “Skin cleansing compositions with polyglycerol esters and hydrophobically modified polymers” (Johnson & Johnson Consumer Companies, Inc., priority 2010, dated 2012):

Tested on: EpiDerm™ Skin Model
Test: Skin Irritancy Potential Test via in vitro skin equivalents (IL-1α release)
Assay type: cell-based, human
Conditions: Table 12; vs C30
Description: The EpiDerm™ Skin Model provided by MatTek Corporation was used in this study. The target cells are epithelial, derived from human skin. The test materials are applied directly to the culture surface, at air interface, so that undiluted and/or end use dilutions can be tested directly.
The experimental design used in this study consisted of a definitive assay to determine the release of one cytokine. Where tissue viability is not decreased by 50% as compared to the negative control tissue (as measured by MTT reduction), the inflammatory potential is then measured by the synthesis/release of the cytokine IL-1α.
In the treatment phase six skin equivalents are used for each diluted test product, individual results are averaged to provide overall response. 100 μl is applied to each equivalent for 1 hour of diluted product (10% dilution) exposure followed by 5 rinses of Ca, Mg Free PBS solution. Each Tissue is placed in a 6 well tray with assay medium for each rinse and returned to incubation for 24 hours. Following incubation tissues are assessed for cytokine responses of IL-1α.

## Polyglycerol-10-Myristate [PG-10-M]
  effect of PGE on mildness of the surfactant system: improve the mildness

## Polyglycerol-10-Oleate [PG-10-O]
  effect of PGE on mildness of the surfactant system: improve the mildness
